The assay addresses T1, AlkBGT alkane monooxygenase complex (Ectopseudomonas oleovorans, UniProt P12691).
T1 construct: gene alkB; inner membrane AlkB with rubredoxin AlkG and reductase AlkT; expressed in E. coli from pGEc41; with Rubredoxin-2; Rubredoxin-NAD(+) reductase
T1 sequence (P12691 1-401): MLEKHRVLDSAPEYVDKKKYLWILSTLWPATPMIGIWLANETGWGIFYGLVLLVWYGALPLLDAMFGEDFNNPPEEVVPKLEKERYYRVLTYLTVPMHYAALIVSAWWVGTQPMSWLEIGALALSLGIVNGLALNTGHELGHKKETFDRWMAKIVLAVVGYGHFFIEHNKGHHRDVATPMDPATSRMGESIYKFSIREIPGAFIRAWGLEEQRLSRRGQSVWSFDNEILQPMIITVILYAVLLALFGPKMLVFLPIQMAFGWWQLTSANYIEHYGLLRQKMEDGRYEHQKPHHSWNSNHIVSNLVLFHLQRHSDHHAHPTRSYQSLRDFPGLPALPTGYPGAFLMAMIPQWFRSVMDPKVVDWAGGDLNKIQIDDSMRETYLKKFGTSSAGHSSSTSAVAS
In words: whole-cell oxidation, GC-FID of products. The format is cell-based. Conditions: 30 % (v/v) octane, 37 °C, E. coli with pGEc41.

With `CCCCCCCCO` [1-octanol], the “whole-cell oxidation, GC-FID of products” value was “The synthesis of 1-octanol and 1-octanal is attributed to AlkB”.
